Laboratory results reported in PubChem BioAssay (NCI).
Where “and” joins values, the source holds several entries; their conditions need not be identical. Equal values may be shown once.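 Interpolation was linear, between the two tested concentrations surrounding the appropriate level; five concentrations were tested over 48 hours in 96-well plates. The concentration for 50% growth inhibition is given as GI50. Definition used: TGI = concentration required for complete inhibition of growth.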

Key:
Test in all cases: NCI anticancer screen, dose series, 48 h
A549 NSCLC = test system: A549 NSCLC
SF-295 CNS = test system: SF-295 CNS
HOP-62 NSCLC = test system: HOP-62 NSCLC
UACC-62 melanoma = test system: UACC-62 melanoma
ACHN renal = test system: ACHN renal
SW-620 colon = test system: SW-620 colon
COLO 205 colon = test system: COLO 205 colon
EKVX NSCLC = test system: EKVX NSCLC
HCT-15 colon = test system: HCT-15 colon
NCI-H226 lung = test system: NCI-H226 lung

Row | SMILES | TGI (A549 NSCLC) | TGI (SF-295 CNS) | TGI (HOP-62 NSCLC) | TGI (UACC-62 melanoma) | TGI (ACHN renal) | TGI (SW-620 colon) | TGI (COLO 205 colon) | TGI (EKVX NSCLC) | TGI (HCT-15 colon) | TGI (NCI-H226 lung) | GI50 (A549 NSCLC) | GI50 (SF-295 CNS) | GI50 (HOP-62 NSCLC) | GI50 (UACC-62 melanoma) | GI50 (ACHN renal) | GI50 (SW-620 colon) | GI50 (COLO 205 colon) | GI50 (HCT-15 colon) | GI50 (NCI-H226 lung) | GI50 (EKVX NSCLC)
1 | O=c1ccc(=O)c2c(=O)c3ccccc3c(=O)c1=2 | > 100 µM | > 100 µM | > 100 µM | > 100 µM | > 100 µM | > 100 µM | > 100 µM | > 100 µM | > 100 µM |  |  |  |  |  |  |  |  |  |  | 
2 | CCN(CC)c1ccc2c(c1)Nc1cc(=C(C#N)C#N)c3ccccc3c1=N2 | > 100 µM | > 100 µM | > 100 µM | > 100 µM | > 100 µM | > 100 µM | > 100 µM | > 100 µM |  | > 100 µM |  |  |  |  |  |  |  |  |  | 
3 | Cc1cc2c(=O)c3ccccc3[nH]c2c(C(=O)O)c1C | > 100 µM | > 100 µM | > 100 µM | > 100 µM | > 100 µM | > 100 µM | > 100 µM | > 100 µM | > 100 µM |  |  |  |  |  |  |  |  |  |  | 
4 | C[N+]1(C)C/C(=C\c2ccncc2)C(=O)/C(=C/c2ccncc2)C1 | > 100 µM | > 100 µM | > 100 µM | > 100 µM | > 100 µM | > 100 µM | > 100 µM | > 100 µM | > 100 µM |  |  |  |  |  |  |  |  |  |  | 
5 | COc1cc(Cn2c(-c3nonc3N)nc3ccccc32)ccc1C | > 100 µM | 5.63 µM | 21.3 µM | > 100 µM | > 93.8 µM | > 100 µM | 1.39 µM |  | > 100 µM | > 100 µM | 0.625 µM | 0.34 µM | 0.568 µM | 0.848 µM | 0.726 µM | 0.334 µM | 0.337 µM | 0.427 µM | 1.91 µM | 
6 | Cc1cc(-c2nnc3n2CCCCC3)c(C)n1-c1ccc(Cl)c(Cl)c1 | 65.8 µM | 52.5 µM | 32.4 µM | 17 µM | > 100 µM | 50.9 µM | 25.1 µM |  | > 100 µM |  | 16.8 µM | 16.4 µM | 16.8 µM | 4.03 µM | 12 µM | 17.5 µM | 10.6 µM | 11.7 µM |  | 
7 | COC(=O)C1=C(C(=O)OC)SC(=C(Cl)C(=S)Sc2ccccc2N)S1 | 59.2 µM | 64.5 µM | 33.2 µM | 78.4 µM | 49.7 µM | > 100 µM | > 100 µM |  | > 100 µM | > 100 µM | 22.3 µM | 26.2 µM | 13.5 µM | 19.9 µM | 22.7 µM | 55.4 µM | 34.8 µM | 43.8 µM | 30.7 µM | 
8 | O=[N+]([O-])c1ccc2c(c1)[O][Sn]([I])([I])[O]2 | > 100 µM | > 100 µM | > 100 µM | > 100 µM | > 100 µM | > 100 µM |  | > 100 µM | > 100 µM | > 100 µM | > 100 µM | > 100 µM | > 100 µM | 52 µM | > 100 µM | > 100 µM |  | 54.4 µM | > 100 µM | > 100 µM
9 | O=C1C2Cc3ccccc3CN2C(=O)N1CCN1CCCC1 (centres undefined) | > 100 µM | > 100 µM | > 100 µM | > 100 µM | > 100 µM | > 100 µM | > 100 µM |  | > 100 µM | > 100 µM |  |  |  |  |  |  |  |  |  | 
10 | COC(=O)c1c(-c2ccccc2)sc(-c2cccc3ccccc23)c1C(=O)OC | > 100 µM | > 100 µM |  | > 100 µM | > 100 µM | > 100 µM | > 100 µM | > 100 µM | > 100 µM | > 100 µM |  |  |  |  |  |  |  |  |  | 
11 | CN=C1SC(=Nc2ccc(N(C)C)cc2)N1C | > 100 µM | > 100 µM | > 100 µM | > 100 µM |  | > 100 µM | > 100 µM | 72.7 µM | > 100 µM | > 100 µM |  |  |  |  |  |  |  |  |  | 
12 | O=c1[nH]c(=O)n(C2OC3COC2C3O)cc1F (centres undefined) | > 100 µM | > 100 µM | > 100 µM |  | > 100 µM | > 100 µM | > 100 µM | > 100 µM | > 100 µM | > 100 µM |  |  |  |  |  |  |  |  |  | 
13 | CC(C)[C@H]1C(=O)N[C@@H](CCCN=C(N)N)C(=O)NCC(=O)N[C@@H](CC(=O)O)C(=O)N[C@H](Cc2ccccc2)C(=O)N1C | > 100 µM | > 100 µM | > 100 µM | > 100 µM | > 100 µM | > 100 µM | > 100 µM |  | > 74.8 µM | > 100 µM | 31.8 µM | > 82.7 µM | 7.04 µM | > 100 µM | > 100 µM |  | > 100 µM | 3.09 µM | 9.21 µM | 
14 | CN1C(=O)C(Cl)(C(Cl)(Cl)S(=O)(=O)O)C(=O)c2ccccc21 (centres undefined) | > 100 µM | > 100 µM | > 100 µM | > 100 µM | > 100 µM | > 100 µM | > 100 µM | > 100 µM |  | > 100 µM |  |  |  |  |  |  |  |  |  | 
15 | CCOc1c(Cl)cc(CNC(C)C(O)c2ccccc2)cc1OC (centres undefined) | > 100 µM | 34.6 µM | > 100 µM | 38.9 µM | > 100 µM | 58.1 µM | 35.9 µM |  | 67.4 µM | > 100 µM | 43.9 µM | 16.4 µM | 31 µM | 17.9 µM | 23.7 µM | 22.8 µM | 19 µM | 21.9 µM | 33.5 µM | 
16 | COC(=O)CCCCCN=Cc1c(O)c(O)c(C(C)C)c2cc(C)c(-c3c(C)cc4c(C(C)C)c(O)c(O)c(C=NCCCCCC(=O)OC)c4c3O)c(O)c12 | > 32.5 µM | 5.34 µM | 28.1 µM |  | > 32.5 µM | > 32.5 µM | 13.2 µM | > 32.5 µM | > 32.5 µM | 19 µM | 1.35 µM | 0.911 µM | 1.35 µM |  | 1.42 µM | 1.37 µM | 1.18 µM | 1.55 µM | 3.15 µM | 1.18 µM
17 | Cc1c2cc[n+](C)cc2c(C)c2c1[nH]c1ccc(O)c(OCC(F)(F)F)c12 | 12.4 µM | 3.76 µM | 5.28 µM | 25.2 µM |  | > 55 µM | 12.6 µM | 20.1 µM |  | 4.08 µM |  |  |  |  |  |  |  |  |  | 
18 | COC(=O)c1nc(N)[nH]c(=O)c1CCCCCc1c(C(=O)OC)nc(N)[nH]c1=O | > 50 µM | > 50 µM | > 50 µM | > 50 µM | > 50 µM | > 50 µM | > 50 µM | > 50 µM | > 50 µM |  |  |  |  |  |  |  |  |  |  | 
19 | Cc1nc(C(N)=S)sc1C(=O)C/C(=N/N)C(=O)Nc1cccc(Cl)c1C | > 100 µM | > 100 µM | > 100 µM | > 100 µM | > 100 µM | > 100 µM |  | > 100 µM | > 100 µM | > 100 µM |  |  |  |  |  |  |  |  |  | 
20 | CC(=O)O[C@@H]1C2C(=O)OC(=O)C2C2CCC[C@]23O[C@H]13 (some centres undefined) | > 100 µM |  | > 100 µM | > 100 µM | > 100 µM | > 100 µM | > 100 µM |  | > 100 µM | > 100 µM |  |  |  |  |  |  |  |  |  | 
21 | N#CC(NNC(=O)c1ccccc1O)c1cccc(O)c1 (centres undefined) | > 100 µM | > 100 µM | > 100 µM |  | > 100 µM | > 100 µM | > 100 µM |  | > 100 µM | 88.5 µM |  |  |  |  |  |  |  |  |  | 
22 | S=c1nc(-c2cccnc2)[nH][nH]1 | > 100 µM | > 100 µM | > 100 µM |  | > 100 µM | > 100 µM | > 100 µM |  | > 100 µM |  |  |  |  |  |  |  |  |  |  | 
23 | Cc1c(Cl)cccc1NC(=O)CC1C(=O)Nc2ccccc2S1(=O)=O (centres undefined) | 33.2 µM | 36.5 µM |  | 31.7 µM | 31.5 µM | 43.7 µM |  | 70 µM | 25.7 µM | 35.1 µM |  |  |  |  |  |  |  |  |  | 
24 | COc1ccc(-c2cn[nH]c2-c2cc(OC)c3c(c2)OCCO3)cc1 | 46 µM | 12.1 µM | 47.6 µM | 17.6 µM | > 100 µM | > 72.5 µM | 0.585 µM |  | 22.4 µM | 23.4 µM | 0.102 µM | 0.0735 µM | 0.264 µM | 0.0758 µM | 1.26 µM | 0.0506 µM | 0.0591 µM | 0.0635 µM | 2.07 µM | 
25 | COc1ccc(/C=C2\C(=O)N(C(=O)Cc3ccccc3)N=C2C)cc1OC | > 100 µM | > 100 µM | > 100 µM |  | > 100 µM | > 100 µM | > 100 µM | > 100 µM | > 100 µM | > 100 µM |  |  |  |  |  |  |  |  |  | 
26 | BrC1(Br)C2/C=C\CCCCC21 (centres undefined) | > 100 µM | > 100 µM | > 100 µM |  | > 100 µM | > 100 µM | > 100 µM | > 100 µM |  | > 100 µM |  |  |  |  |  |  |  |  |  | 
27 | CCOC(=O)[C@H]1Nc2ccc(OC)cc2C2c3ccccc3CC21 (some centres undefined) | > 100 µM | > 100 µM | > 100 µM | > 100 µM | > 100 µM | > 100 µM | > 100 µM |  | > 100 µM | > 100 µM |  |  |  |  |  |  |  |  |  | 
28 | c1cc(CNC2C3CCC(C3)C2c2c[nH]c3ccccc23)cc(CNC2C3CCC(C3)C2c2c[nH]c3ccccc23)c1 (centres undefined) | > 100 µM |  |  | 3.04 µM | 2.04 µM | > 100 µM | 3.03 µM | 3.34 µM | 1.01 µM and 1.12 µM |  |  |  |  |  |  | 2.11 µM and 0.386 µM | 1.54 µM | 0.325 µM and 0.301 µM |  | 
29 | CC1(C)C2CCC3(C2)CS(=O)(=O)N2OC231 (centres undefined) | > 100 µM | > 100 µM | > 100 µM | 31.8 µM | 29.4 µM | 32.9 µM | 32.9 µM | 30.3 µM | 30.1 µM |  |  |  |  |  |  |  |  |  |  | 
